Assay: Temperature cycling / physical stability of solvents, systems and formulations
Assay type: physicochemical
Description: Temperature Cycling of Selected Solvents and Solubility Systems was studied. Systems were prepared at ambient temperature, with mixed solvent in the weight ratios reported in brackets. Mitotane, 0.25 grams, was then added to 1 gram of each solvent or solvent mixture. Samples were placed in the refrigerator (5° C.±3° C.) and observations were recorded. The samples were then left at ambient temperature for 24 hours, and observations recorded. The samples were then placed in a 40° C. oven, and final observation was made after another 24 hours. These observations are recorded in the table below.
Based on these studies, several formulations were prepared (see Tables 10 and 11). Temperature cycling was tested to evaluate the physical stability of the three formulations F-2772-054 (33.3% drug w/w), F-2772-055 (20.0% drug w/w), and F-2772-057 (33.3% drug w/w) as well as formulations F-2772-054 and 057 at 28.5% drug w/w. […] Temperature cycling consisted of three stages for 24 hour periods; refrigeration (5° C.), 40° C. conventional oven, and room temperature. After each 24 hour cycle, solutions were evaluated for clarity.

Highest mitotane concentration trial found to be the most stable: 28.5 % weight/weight
Highest most stable mitotane concentration expressed as drug loading (28.5/(100-28.5)): 40 % drug loading
SMILES: Clc1ccc(C(c2ccccc2Cl)C(Cl)Cl)cc1 (centres unmarked) [mitotane, Mitotane]

Reference: patent US9770509B2, “Self micro-emulsifying drug delivery system with increased bioavailability” (Pharmaceutics International, Inc., priority 2010, dated 2017)
